Measurements: patent US5055472A, “Pyrazolopyrimidine type mevalonolactones” (Nissan Chemical Industries, Ltd., priority 1988, dated 1991)

Experiments:
[1] = system: cholesterol biosynthesis in Hep G2 cells; experiment: Test B-1: Inhibition of cholesterol biosynthesis in culture cells (Hep G2); assay type: cell-based; settings: for inhibition at 1 µM: 1.0 × 10^-6 mol/l, Hep G2 cells, read-out: Inhibitory activities at a concentration of 1.0 × 10^-6 mol/l by Test B-1 (Relative activities); for Relative activities by Test B-1: relative to CS-514 = 1 (Test B-1)
Description: Hep G2 cells at over 5th passage were seeded to 12 well plates and incubated with Dulbecco's modified Eagle (DME) medium containing 10% of fetal bovine serum (FBS) at 37° C., 5% CO2 until cells were confluent for about 7 days. Cells were exposed to the DME medium contaiing 5% of lipoprotein deficient serum (LpDS) prepared by ultracentrifugation method for over 24 hours. Medium was changed to 0.5 ml of fresh 5% LpDS containing DME before assay and 10 μl of test compound solution dissolved in water or DMSO were added. 0.2 μCi of [2-^14 C]sodium acetate (20 μl ) was added at 0 hr(B-1) or 4 hrs(B-2) after addition of compounds. After 4 hrs further incubation with [2-^14 C]sodium acetate, medium was removed and cells were washed with phosphate buffered saline (PBS) chilled at 4° C. Cells were scraped with rubber policeman and collected to tubes with PBS and digested with 0.2 ml of 0.5 N KOH at 37° C. Aliquot of digestion was used for protein analysis and remaining was saponified with 1 ml of 15% EtOH-KOH at 75° C. for 1 hour. Nonsaponifiable lipids were extracted with petroleum ether and ^14 C radioactivity was counted. Counts were revised by cell protein and indicated with DPM/mg protein. Inhibitory activity of compounds was indicated with IC50. With respect to the compounds of the present invention, the inhibitory activities against the cholesterol biosynthesis in which HMG-CoA reductase serves as a rate limiting enzyme, were measured by the above Test A and B.

cholesterol biosynthesis [2] = experiment: Test C: Inhibition of cholesterol biosynthesis in vivo; parameters: species or system Male Sprague-Dawley rats; settings: 0.2 mg/kg, oral administration, rats
Description: Male Sprague-Dawley rats weighing about 150 g were fed normal Purina chow diet and water ad libitum, and exposed to 12 hours light/12 hours dark lighting pattern (2:00 PM-2:00 AM dark) prior to use for in vivo inhibition test of cholesterol biosynthesis. Animals were separated groups consisting of five rats as to be average mean body weight in each groups. Test compounds at dosage of 0.02-0.2 mg/kg body weight (0.4 ml/100 g body weight), were dissolved in water or suspended in 0.5% methyl cellulose and orally administered at 2-3 hours before mid-dark (8:00 PM), while cholesterol biosynthesis reaches to maximum in rats. As control, rats were orally administered only water or vehicle. At 90 minutes after sample administration, rats were injected intraperitoneally with 10 μCi of [2-^14 C]sodium acetate at volume of 0.2 ml per one. 2 Hours later, blood samples were obtained and serum were separated immediately. Total lipids were extracted according to the method of Folch et al. and saponified with EtOH-KOH. Nonsaponifiable lipids were extracted with petroleum ether and radio activity incorporated into nonsaponifiable lipids was counted. Inhibitory activity was indicated as percent decrease of counts in testing groups (DPM/2 ml serum/2 hours) from that in control group.

cholesterol biosynthesis [3] = experiment: Test A: Inhibition of cholesterol biosynthesis from acetate in vitro; assay type: biochemical, male Wistar rat; settings: relative to CS-514 = 1 (Test A)
Description: Enzyme solution was prepared from liver of male Wistar rat billialy connulated and discharged bile for over 24 hours. Liver was cut out at mid-dark and microsome and supernatant fraction which was precipitable with 40-80% of solution of ammonium sulfate (sup fraction) were prepared from liver homogenate according to the modified method of Knauss et. al.; Kuroda, M., et. al., Biochim. Biophys. Acta, 489, 119 (1977). For assay of cholesterol biosynthesis, microsome (0.1 mg protein) and sup fraction (1.0 mg protein) were incubated for 2 hours at 37° C. in 200 μl of the reaction mixture containing ATP; 1 mM, Glutathione; 6 mM, Glucose-1-phosphate; 10 mM, NAD; 0.25 mM, NADP; 0.25 mM, CoA; 0.04 mM and 0.2 mM [2-^14 C]sodium acetate (0.2 μCi) with 4 μl of test compound solution dissolved in water or dimethyl sulfoxide. To stop reaction and saponify, 1 ml of 15% EtOH-KOH was added to the reactions and heated at 75° C. for 1 hour. Nonsaponifiable, lipids were extracted with petroleum ether and incorporated ^14 C radioactivity was counted. Inhibitory activity of compounds was indicated with IC50.
With respect to the compounds of the present invention, the inhibitory activities against the cholesterol biosynthesis in which HMG-CoA reductase serves as a rate limiting enzyme, were measured by the above Test A and B. The results are shown in Tables 2, 3-1 and 3-2.
The relative activities of the compounds of the present invention based on the activities of CS-514 by Test A being evaluated to be 1, are shown in Table 2.

Test D: Acute toxicity = settings: mouse, in vivo, 1000 mg/kg; 1,000 mg/kg oral, 0.5% CMC suspension, ICR male mice, after seven days
Description: A 0.5% CMC suspension of a test compound was orally administered to ICR male mice (group of three mice). The acute toxicity was determined based on the mortality after seven days. With compound I 5-4 and I-5-6 of the present ivnention, the mortality was 0% even when they were orally administered in an amount of 1,000 mg/kg, respectively.

CCC(C)C(=O)OC1CC(O)C=C2C=CC(C)C(CCC(O)CC(O)CC(=O)O)C21 (stereo not shown) [CS-514, reference compound]
IC50 ([1]; Homo sapiens, HepG2, Test B-1, Hep G2 cells, [2-14C]sodium acetate added at 0 hr, read-out: IC50 in Test B1): 3.66 µM | percent decrease of counts relative to control group (cholesterol biosynthesis [2]): 34%

CCOC(=O)CC(O)CC(O)/C=C/c1c(C(C)C)nc2cc(C)nn2c1-c1ccc(F)cc1 (stereo not shown) [Compound I-1-1, Ethyl (E)-7-[7'-(4"-fluorophenyl)-2'-methyl-5'-(1"-methylethyl)pyrazolo[1,5-a]pyrimidin-6'-yl]-3,5-dihydroxyhept-6-enoate]
inhibition at 1 µM ([1]; Homo sapiens, HepG2): 67.3% | Relative activities by Test B-1 [1]: 17.8

CCOC(=O)CC(O)CC(O)/C=C/c1c(C(C)C)nc2cc(-c3ccccc3)nn2c1-c1ccc(F)cc1 (stereo not shown) [Compound I-1-3]
inhibition at 1 µM ([1]; Homo sapiens, HepG2): 66.1% | Relative activities by Test B-1 [1]: 29.5

Cc1cc2nc(C(C)C)c(/C=C/C(O)CC(O)CC(=O)O)c(-c3ccc(F)cc3)n2n1 (stereo not shown) [Compound I-5-1, Sodium (E)-7-[7'-(4"-fluorophenyl)-2'-methyl-5'-(1"-methylethyl)pyrazolo[1,5-a]pyrimidin-6'-yl]-3,5-dihydroxyhept-6-enoate]
Relative activities by Test A (cholesterol biosynthesis [3]): 0.64 | inhibition at 1 µM ([1]; Homo sapiens, HepG2): 53.9% | percent decrease of counts relative to control group (cholesterol biosynthesis [2]): 50%

CC(C)c1nc2cc(C(C)(C)C)nn2c(-c2ccc(F)cc2)c1/C=C/C(O)CC(O)CC(=O)O (stereo not shown) [Compound I-5-2]
Relative activities by Test A (cholesterol biosynthesis [3]): 0.09 | inhibition at 1 µM ([1]; Homo sapiens, HepG2): 44.6%

CC(C)c1nc2cc(-c3ccccc3)nn2c(-c2ccc(F)cc2)c1/C=C/C(O)CC(O)CC(=O)O (stereo not shown) [Compound I-5-3]
Relative activities by Test A (cholesterol biosynthesis [3]): 0.27 | inhibition at 1 µM ([1]; Homo sapiens, HepG2): 66.3% | Relative activities by Test B-1 [1]: 26.0

Cc1cc2nc(C3CC3)c(/C=C/C(O)CC(O)CC(=O)O)c(-c3ccc(F)cc3)n2n1 (stereo not shown) [Compound I-5-4]
Relative activities by Test A (cholesterol biosynthesis [3]): 0.39 | inhibition at 1 µM ([1]; Homo sapiens, HepG2): 57.1% | mortality at 168 h (Test D: Acute toxicity): 0%

Cc1nn2c(-c3ccc(F)cc3)c(/C=C/C(O)CC(O)CC(=O)O)c(C3CC3)nc2c1C (stereo not shown) [Compound I-5-5]
Relative activities by Test A (cholesterol biosynthesis [3]): 0.29 | inhibition at 1 µM ([1]; Homo sapiens, HepG2): 55.3%

Cc1nn2c(-c3ccc(F)cc3)c(/C=C/C(O)CC(O)CC(=O)O)c(C3CC3)nc2c1-c1ccccc1 (stereo not shown) [Compound I-5-6]
Relative activities by Test A (cholesterol biosynthesis [3]): 0.75 | inhibition at 1 µM ([1]; Homo sapiens, HepG2): 58% | mortality at 168 h (Test D: Acute toxicity): 0%

CC(C)c1nc2cc(-c3ccco3)nn2c(-c2ccc(F)cc2)c1/C=C/C(O)CC(O)CC(=O)O (stereo not shown) [Compound I-5-7]
Relative activities by Test A (cholesterol biosynthesis [3]): 0.20

CC(C)c1cc2nc(C3CC3)c(/C=C/C(O)CC(O)CC(=O)O)c(-c3ccc(F)cc3)n2n1 (stereo not shown) [Compound I-5-8]
Relative activities by Test A (cholesterol biosynthesis [3]): 0.09

CC(C)c1nc2c3c(nn2c(-c2ccc(F)cc2)c1/C=C/C(O)CC(O)CC(=O)O)CCCC3 (stereo not shown) [Compound I-5-9]
Relative activities by Test A (cholesterol biosynthesis [3]): 0.13
